Experimental findings from PubChem BioAssay AID248 (DTP/NCI, 2004) are described below.

“And” between values parts separate entries of the source, which are not always exact repeats. Equal values may be shown once. Inconclusive results and toxic doses are left out. Peptide text beside a SMILES is read from it. * marks the point of attachment. CH2Cl = ClC*

The test system of the test is L1210 leukemia ip in BDF1 mice, survival T/C. The experiment in a line: NCI In Vivo Anticancer Drug Screen. Data for tumor model L1210 Leukemia (intraperitoneal) in B6D2F1 (BDF1) mice. To be noted: endpoint: mean survival time, higher = longer survival. A digest of the protocol: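 Read-out is survival time, reported as the treated-group measurement over the vehicle-control measurement.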

Where [1] appears, read: dose: 100.0 mg/kg/injection, schedule: Q01DX009 (ip), vehicle: Klucel (hydroxypropylcellulose) (HPC).
The mark [2] stands for this setting: dose: 100.0 mg/kg/injection, schedule: Q04DX003 (ip), vehicle: Klucel (hydroxypropylcellulose) (HPC).
The mark [3] stands for this setting: dose: 200.0 mg/kg/injection, schedule: Q01DX009 (ip), vehicle: Klucel (hydroxypropylcellulose) (HPC).
[4] abbreviates: dose: 200.0 mg/kg/injection, schedule: Q04DX003 (ip), vehicle: Klucel (hydroxypropylcellulose) (HPC).
The mark [5] stands for this setting: dose: 400.0 mg/kg/injection, schedule: Q01DX009 (ip), vehicle: Klucel (hydroxypropylcellulose) (HPC).
Setting [6] is: dose: 400.0 mg/kg/injection, schedule: Q04DX003 (ip), vehicle: Klucel (hydroxypropylcellulose) (HPC).
Where [7] appears, read: dose: 75.0 mg/kg/injection, schedule: Q01DX001 (ip), vehicle: Klucel (hydroxypropylcellulose) (HPC).
Where [8] appears, read: dose: 150.0 mg/kg/injection, schedule: Q01DX001 (ip), vehicle: Klucel (hydroxypropylcellulose) (HPC).
Setting [9] is: dose: 300.0 mg/kg/injection, schedule: Q01DX001 (ip), vehicle: Klucel (hydroxypropylcellulose) (HPC).
[10] abbreviates: dose: 100.0 mg/kg/injection, schedule: Q04DX003 (ip), vehicle: saline with Tween-80.
Where [11] appears, read: dose: 200.0 mg/kg/injection, schedule: Q04DX003 (ip), vehicle: saline with Tween-80.
[12] abbreviates: dose: 400.0 mg/kg/injection, schedule: Q04DX003 (ip), vehicle: saline with Tween-80.
Setting [13] is: dose: 100.0 mg/kg/injection, schedule: Q01DX001 (ip), vehicle: saline.
Where [14] appears, read: dose: 100.0 mg/kg/injection, schedule: Q04DX003 (ip), vehicle: saline.
The mark [15] stands for this setting: dose: 200.0 mg/kg/injection, schedule: Q04DX003 (ip), vehicle: saline.
[16] abbreviates: dose: 100.0 mg/kg/injection, schedule: Q01DX009 (ip), vehicle: saline with Tween-80.
[17] abbreviates: dose: 200.0 mg/kg/injection, schedule: Q01DX009 (ip), vehicle: saline with Tween-80.
The mark [18] stands for this setting: dose: 400.0 mg/kg/injection, schedule: Q01DX009 (ip), vehicle: saline with Tween-80.
The mark [19] stands for this setting: dose: 12.5 mg/kg/injection, schedule: Q01DX009 (ip), vehicle: saline.
[20] abbreviates: dose: 25.0 mg/kg/injection, schedule: Q01DX009 (ip), vehicle: saline.
Setting [21] is: dose: 50.0 mg/kg/injection, schedule: Q01DX009 (ip), vehicle: saline.
[22] abbreviates: dose: 100.0 mg/kg/injection, schedule: Q01DX009 (ip), vehicle: saline.
The mark [23] stands for this setting: dose: 200.0 mg/kg/injection, schedule: Q01DX009 (ip), vehicle: saline.

Consider `Cc1ccc(NC(=O)Nc2ccccc2Cl)cc1Cl`, for which the T/C was 100 % of control under setting [1]; 112 % of control under setting [2]; 98 % of control under setting [3]; 96 % of control under setting [4]; 100 % of control under setting [5]; 94 % of control under setting [6].

On to `O=C(NC(C(=O)SC1=NC=NC2=NC=NC21)C(SC1=NC=NC2=NC=NC21)c1cccnc1)c1ccccc1` (stereo unspecified), for which the T/C (dose: 37.5 mg/kg/injection, schedule: Q01DX Z (ip), vehicle: saline) is 153 % of control.

In the case of `CN1C(=O)N(C)P1(Cl)(Cl)Cl`, the T/C is, setting by setting: (dose: 100.0 mg/kg/injection, schedule: Q04DX002 (ip), vehicle: saline with Tween-80) 103 % of control; (dose: 200.0 mg/kg/injection, schedule: Q04DX002 (ip), vehicle: saline with Tween-80) 95 % of control; (dose: 400.0 mg/kg/injection, schedule: Q04DX002 (ip), vehicle: saline with Tween-80) 92 % of control.

For `CC(=O)Nc1c(C)c(NC(C)=O)c(C)c(NC(C)=O)c1C`, the T/C runs as follows: under setting [7], 90 % of control; (dose: 75.0 mg/kg/injection, schedule: Q01DX009 (ip), vehicle: Klucel (hydroxypropylcellulose) (HPC)) 94 % of control; under setting [8], 101 % of control; under setting [9], 92 % of control.

On to `CCOc1cc(-c2nc(-c3ccc(N=Cc4ccc(N(CCCOS(C)(=O)=O)CCCOS(C)(=O)=O)cc4C)cc3)cs2)ccc1OCc1ccccc1`, for which the T/C is 91 % of control under setting [10], 86 % of control under setting [11] and 89 % of control under setting [12].

Take `CCCCCCCC(=O)N1C=CN(C(=O)CCCCCCC)C1`: the T/C was 100 % of control (dose: 30.0 mg/kg/injection, schedule: Q01DX001 (ip), vehicle: saline); 94 % of control under setting [13]; 94 % of control (dose: 300.0 mg/kg/injection, schedule: Q01DX001 (ip), vehicle: saline).

For `CCCSCCCC(=O)O`, the T/C by setting is: under setting [1], 88 % of control; under setting [3], 97 % of control.

In the case of `CCCn1ccc(N)nc1=O`, the T/C under setting [7] was 116 % of control, the T/C under setting [8] was 119 % of control and the T/C under setting [9] is 111 % of control.

Take `Cc1cc(OC(=O)Nc2cccc([N+](=O)[O-])c2)cc(C)c1Cl`: the T/C by setting is: under setting [1], 100 % of control; under setting [3], 90 % of control; under setting [5], 93 % of control.

With `[Cl][Dy]([Cl])[Cl]`, the T/C is 103 % of control under setting [14] and 114 % of control under setting [15].

In the case of `CC(=O)OCC1(C[N+](C)(C)C)CCC1`, the T/C is, setting by setting: under setting [13], 103 % of control; under setting [14], 95 % of control; (dose: 200.0 mg/kg/injection, schedule: Q01DX001 (ip), vehicle: saline) 97 % of control; under setting [15], 94 % of control; (dose: 400.0 mg/kg/injection, schedule: Q01DX001 (ip), vehicle: saline) 110 % of control.

In the case of `O=C(O)CCSc1nc[nH]c1[N+](=O)[O-]`, the T/C by setting is: (dose: 100.0 mg/kg/injection, schedule: Q01DX001 (ip), vehicle: saline with Tween-80) 102 % of control; (dose: 200.0 mg/kg/injection, schedule: Q01DX001 (ip), vehicle: saline with Tween-80) 96 % of control; (dose: 400.0 mg/kg/injection, schedule: Q01DX001 (ip), vehicle: saline with Tween-80) 96 % of control.

Consider `CCOC(=O)C(=CNc1cccc(C)n1)C(=O)OCC`, for which the T/C was 100 % of control under setting [16], 102 % of control under setting [17] and 100 % of control under setting [18].

Take `Fc1c(F)c(F)c(Oc2c(F)c(F)c(C(F)(F)F)c(F)c2F)c(F)c1F`: the T/C is, setting by setting: under setting [16], 102 % of control; under setting [10], 94 % of control; under setting [17], 98 % of control; under setting [11], 92 % of control; under setting [18], 98 % of control; under setting [12], 92 % of control.

Turning to `Clc1ccc(CSc2ncnc3nc[nH]c23)cc1Cl`, the T/C is 93 % of control under setting [10], 94 % of control under setting [11] and 104 % of control under setting [12].

For `CCCCOCCC1CCNCC1`, the T/C runs as follows: under setting [19], 97 % of control; (dose: 12.5 mg/kg/injection, schedule: Q04DX003 (ip), vehicle: saline) 96 % of control; under setting [20], 101 % of control; (dose: 25.0 mg/kg/injection, schedule: Q04DX003 (ip), vehicle: saline) 97 % of control; under setting [21], 101 % of control; (dose: 50.0 mg/kg/injection, schedule: Q04DX003 (ip), vehicle: saline) 100 % of control.

As to `CNC(=S)N/N=C1/C(=N\NC(=S)NC)C(=O)OC1C(O)CO` (stereo unspecified), the T/C is 93 % of control (dose: 100.0 mg/kg/injection, schedule: Q01DX001 (ip), vehicle: other); 98 % of control under setting [16]; 100 % of control under setting [10]; 95 % of control (dose: 200.0 mg/kg/injection, schedule: Q01DX001 (ip), vehicle: other); 112 % of control under setting [17]; 89 % of control under setting [11]. Moreover, the T/C reads like this: (dose: 400.0 mg/kg/injection, schedule: Q01DX001 (ip), vehicle: other) 90 % of control; under setting [12], 91 % of control.

Take `CC(C)(C)C1COP(=S)(c2ccccc2)OC1` (stereo unspecified): the T/C under setting [2] was 96 % of control.

In the case of `O=c1c(O)cccc2cc(O)c(O)c(O)c12`, the T/C was 100 % of control under setting [19]; 94 % of control and 97 % of control and 107 % of control under setting [20]; 95 % of control and 101 % of control (2×) under setting [21]; 101 % of control under setting [22]; 94 % of control and 92 % of control under setting [23].

In the case of `CC(=O)CC(=O)Nc1cccc(C)c1C`, the T/C was 95 % of control under setting [1]; 97 % of control under setting [2]; 88 % of control under setting [3]; 106 % of control under setting [4]; 88 % of control under setting [5]; 105 % of control under setting [6].

In the case of `C/C(CCC(=O)O)=N/O`, the T/C runs as follows: under setting [22], 101 % of control; under setting [14], 95 % of control; under setting [23], 97 % of control; under setting [15], 100 % of control; (dose: 400.0 mg/kg/injection, schedule: Q01DX009 (ip), vehicle: saline) 105 % of control; (dose: 400.0 mg/kg/injection, schedule: Q04DX003 (ip), vehicle: saline) 101 % of control.

With `CCCCNC(=O)Nc1ccccc1Cl`, the T/C reads like this: (dose: 100.0 mg/kg/injection, schedule: Q01DX001 (ip), vehicle: Klucel (hydroxypropylcellulose) (HPC)) 96 % of control; (dose: 200.0 mg/kg/injection, schedule: Q01DX001 (ip), vehicle: Klucel (hydroxypropylcellulose) (HPC)) 99 % of control; (dose: 400.0 mg/kg/injection, schedule: Q01DX001 (ip), vehicle: Klucel (hydroxypropylcellulose) (HPC)) 102 % of control.

For `CC(=O)NC(CC(C)C)C(=O)NC(Cc1ccccc1)C(=O)CCl` (stereo not drawn) (Ac-Leu-Phe-CH2Cl; configuration not given here), the T/C is 94 % of control (dose: 100.0 mg/kg/injection, schedule: Q04DX002 (ip), vehicle: Klucel (hydroxypropylcellulose) (HPC)); 98 % of control (dose: 200.0 mg/kg/injection, schedule: Q04DX002 (ip), vehicle: Klucel (hydroxypropylcellulose) (HPC)); 102 % of control (dose: 400.0 mg/kg/injection, schedule: Q04DX002 (ip), vehicle: Klucel (hydroxypropylcellulose) (HPC)).

Regarding `NCCSC12CC3CC(CC(C3)C1)C2`, the T/C is, setting by setting: (dose: 100.0 mg/kg/injection, schedule: Q04DX002 (ip), vehicle: saline) 90 % of control; (dose: 200.0 mg/kg/injection, schedule: Q04DX002 (ip), vehicle: saline) 94 % of control; (dose: 400.0 mg/kg/injection, schedule: Q04DX002 (ip), vehicle: saline) 96 % of control.
